Test results reported in publication PMC8621373, “New Bioactive Fused Triazolothiadiazoles as Bcl-2-Targeted Anticancer Agents” (International Journal of Molecular Sciences, 2021).
“And” between values parts separate entries of the source, which are not always exact repeats. Equal entries are not always repeated. “Also recorded” adds a separate entry of the source.

Key:
KG1a = assay: Cell viability CellTiter-Blue assay, KG1a; assay type: cell-based, human; details: for IC50: Homo sapiens, KG-1a, growth inhibition, CellTiter-Blue, 24 h, mean ± SEM
Experimental: (§1) Human acute myeloid leukemia KG1a and acute T-cell lymphocytic leukemia Jurkat cells were cultured and maintained as previously described. For each experiment, 15,000 cells in 0.1 mL of medium were seeded into a solid-black fluorescence 96-well plate and incubated for 24 h. The cells were treated with different concentrations of the test compounds (from 0.00001 to 100 µM) over a 10-fold dilution series and incubated for 24 h. CellTiter-Blue® solution was added, followed by reading of the fluorescence according to our previous protocol. IC50 values were obtained by using GraphPad Prism 5 software (San Diego, CA, USA). For each concentration, six independent experiments were carried out.

HeLa = assay: Cell viability by MTT assay, HeLa; assay type: cell-based; details: Homo sapiens, growth inhibition, 72 h, mean ± SEM
Experimental: (§2) Human breast cancer (MDA-MB-231) and cervical cancer (HeLa) cells, obtained from the ATCC (Manassas, VA, USA), were maintained as previously described. Cytotoxic effects of the tested compounds were assessed using MTT assay. Briefly, 4000 cells in 0.1 mL of medium (Life Technologies, Paisley, UK) were seeded and allowed to adhere for 24 h. The cells were treated with different concentrations of the tested compounds (from 0.00001 to 100 µM) and incubated for 72 h. In total, 20 µL of (5 mg/mL) MTT reagent (3-[4,5-dimethylthiazol-2-yl]-2,5-diphenyl tetrazolium bromide) in PBS was added and incubated for 4 h. The developed purple colour following the addition of DMSO was measured using a Multiskan Go machine (spectrophotometer) at 570 nm absorbance. Each concentration experiment was repeated independently 6 times to establish reproducibility. The percentage cell viability was calculated following the formula below, and IC50 values were obtained by using GraphPad Prism 5 software (San Diego, CA, USA). Cell viability (%) = [(OD test − OD blank) ÷ (OD negative control − OD blank)] × 100(1)

Jurkat = assay: Cell viability CellTiter-Blue assay, Jurkat (Bcl-2-negative); assay type: cell-based, human; details: Bcl-2-negative cell line; for IC50: Homo sapiens, Jurkat, growth inhibition, CellTiter-Blue, 24 h, mean ± SEM
Experimental: as §1

MDA-MB-231 = assay: Cell viability by MTT assay, MDA-MB-231; assay type: cell-based; details: Homo sapiens, growth inhibition, 72 h, mean ± SEM
Experimental: as §2

His-tagged Bcl-2 protein = His-tagged Bcl-2 protein (Homo sapiens, UniProt P10415); assay: Competitive ELISA binding assay (interruption of Bcl-2-Bim interaction); details: for IC50: competition with Bim peptide, mean and SEM of three independent measurements
Chain of His-tagged Bcl-2 protein (P10415 whole entry): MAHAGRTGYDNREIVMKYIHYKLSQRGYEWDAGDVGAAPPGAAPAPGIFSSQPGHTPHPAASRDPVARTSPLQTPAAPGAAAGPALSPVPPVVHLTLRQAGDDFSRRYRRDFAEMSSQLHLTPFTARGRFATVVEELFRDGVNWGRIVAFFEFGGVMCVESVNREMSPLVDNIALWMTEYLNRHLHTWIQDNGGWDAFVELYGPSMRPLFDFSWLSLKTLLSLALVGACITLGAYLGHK
Experimental: ELISA assay was performed to evaluate the ability of the compounds to compete with Bim protein and inhibit its interaction with Bcl-2 protein.. The addition of His-tagged Bcl-2 protein to a biotinylated Bim-coated plate according to our previously published protocol was followed by the addition of anti-His antibody (Abcam, Cambridge, UK) containing horseradish peroxidase enzyme (Qiagen, Crawley, UK), o-phenylenediamine (Sigma-Aldrich, UK) and hydrogen peroxide. The optical density was determined using a plate reader at wavelength of 450 nm. The experiments were carried out on three separate occasions, including both negative and positive controls. A plot of log nM concentration for each inhibitor against the percentage reduction in the Bim peptide was created, using non-linear regression curve analysis (GraphPad Prism 5, San Diego, CA, USA) and a software used to generate IC50 for the Bcl-2 inhibition activity.

[1] = test system: Bcl-2-expressing human cancer cell lines (MDA-MB-231, HeLa and KG1a); assay: Growth inhibition of Bcl-2-expressing human cancer cell lines (summary); assay type: cell-based; details: span over MDA-MB-231, HeLa and KG1a, read-out: IC50 against Bcl-2-expressing cell lines
Experimental: as §2, with “Cell viability (%) = [(OD test − OD blank) ÷ (OD negative control − OD blank)] × 100(1)” left out
Human acute myeloid leukemia KG1a and acute T-cell lymphocytic leukemia Jurkat cells were cultured and maintained as previously described. For each experiment, 15,000 cells in 0.1 mL of medium were seeded into a solid-black fluorescence 96-well plate and incubated for 24 h. […] CellTiter-Blue® solution was added, followed by reading of the fluorescence according to our previous protocol. […]

## Sc1nn2c(-c3c[nH]c4ccccc34)nnc2s1 [Compound 4, 3-(1H-Indol-3-yl)-[1,2,4]-triazolo[3,4-b]-[1,3,4]-thiadiazole-6-thiol]
KG1a
  IC50: 28.4 ± 0.43 µM
HeLa
  IC50: 18.2 ± 0.6 µM
Jurkat
  IC50: 10.3 ± 0.14 µM
MDA-MB-231
  IC50: 15 ± 0.6 µM
other
  melting point: 170 to 172 °C

## Ic1ccc(-c2nn3c(-c4c[nH]c5ccccc45)nnc3s2)cc1 [Compound 5a, 3-[6-(4-Iodophenyl)-[1,2,4]-triazolo[3,4-b]-[1,3,4]-thiadiazol-3-yl]-1H-indole]
KG1a
  IC50: 1.66 ± 0.03 µM
HeLa
  IC50: 0.54 ± 0.02 µM
Jurkat
  IC50: 8.12 ± 0.16 µM
MDA-MB-231
  IC50: 2.72 ± 0.32 µM
other
  melting point: 183 to 185 °C

## COc1ccc(-c2nn3c(-c4c[nH]c5ccccc45)nnc3s2)cc1 [Compound 5b, 3-[6-(4-Methoxyphenyl)-[1,2,4]-triazolo[3,4-b]-[1,3,4]-thiadiazol-3-yl]-1H-indole]
KG1a
  IC50: 3.14 ± 0.19 µM
HeLa
  IC50: 2.7 ± 0.9 µM
Jurkat
  activity against Jurkat cells (in words): no activity
  IC50: > 100 µM
MDA-MB-231
  IC50: 1.7 ± 0.61 µM
His-tagged Bcl-2 protein
  IC50: 1.14 ± 0.09 µM
other
  melting point: 192 to 194 °C

## Cc1ccc(-c2nn3c(-c4c[nH]c5ccccc45)nnc3s2)cc1 [Compound 5c, 3-(6-p-Tolyl-[1,2,4]-triazolo[3,4-b]-[1,3,4]-thiadiazol-3-yl)-1H-indole]
KG1a; Acute Myeloid Leukemia cell line
  activity against KG1A cell line (in words): inactive
KG1a
  IC50: > 100 µM
HeLa
  IC50: 12.5 ± 0.23 µM
Jurkat
  activity against Jurkat cells (in words): no activity
  IC50: > 100 µM
MDA-MB-231
  IC50: 16.3 ± 0.19 µM
other
  melting point: 201 to 203 °C

## Brc1cccc(-c2nn3c(-c4c[nH]c5ccccc45)nnc3s2)c1 [Compound 5d, 3-[6-(3-Bromophenyl)-[1,2,4]-triazolo[3,4-b]-[1,3,4]-thiadiazol-3-yl]-1H-indole]
KG1a
  IC50: 20.2 ± 0.46 µM
HeLa
  IC50: 6.48 ± 0.67 µM
Jurkat
  IC50: 45.5 ± 0.4 µM
MDA-MB-231
  IC50: 4.9 ± 0.75 µM
other
  melting point: 179 to 182 °C

## Brc1ccc(-c2nn3c(-c4c[nH]c5ccccc45)nnc3s2)cc1 [Compound 5e, 3-[6-(4-Bromophenyl)-[1,2,4]-triazolo[3,4-b]-[1,3,4]-thiadiazol-3-yl]-1H-indole]
KG1a
  IC50: 4.9 ± 0.73 µM
HeLa
  IC50: 9.8 ± 0.3 µM
Jurkat
  activity against Jurkat cells (in words): no activity
  IC50: > 100 µM
MDA-MB-231
  IC50: 8.29 ± 0.9 µM
His-tagged Bcl-2 protein
  IC50: 4.6 ± 0.19 µM
other
  melting point: 196 to 198 °C

## Clc1cccc(-c2nn3c(-c4c[nH]c5ccccc45)nnc3s2)c1 [Compound 5f, 3-[6-(3-Chlorophenyl)-[1,2,4]-triazolo[3,4-b]-[1,3,4]-thiadiazol-3-yl]-1H-indole]
KG1a
  IC50: 10.2 ± 0.65 µM
HeLa
  IC50: 3.6 ± 0.52 µM
Jurkat
  IC50: 20.5 ± 0.52 µM
MDA-MB-231
  IC50: 12.5 ± 0.66 µM
other
  melting point: 185 to 187 °C

## Fc1cccc(-c2nn3c(-c4c[nH]c5ccccc45)nnc3s2)c1 [Compound 5g, 3-[6-(3-Fluorophenyl)-[1,2,4]-triazolo[3,4-b]-[1,3,4]-thiadiazol-3-yl]-1H-indole]
KG1a
  IC50: 8.6 ± 0.22 µM
HeLa
  IC50: 1.99 ± 0.28 µM
Jurkat
  IC50: 65.1 ± 1.25 µM
MDA-MB-231
  IC50: 7.5 ± 0.98 µM
other
  melting point: 183 to 185 °C

## O=[N+]([O-])c1ccc(-c2nn3c(-c4c[nH]c5ccccc45)nnc3s2)cc1 [Compound 5h, 3-[6-(4-Nitrophenyl)-[1,2,4]-triazolo[3,4-b]-[1,3,4]-thiadiazol-3-yl]-1H-indole]
KG1a
  IC50: 34.5 ± 0.3 µM
HeLa
  IC50: 22.1 ± 0.45 µM
Jurkat
  IC50: 58.1 ± 1.3 µM
MDA-MB-231
  IC50: 3.16 ± 0.32 µM
other
  melting point: 196 to 198 °C

## FC(F)(F)c1ccc(-c2nn3c(-c4c[nH]c5ccccc45)nnc3s2)cc1 [Compound 5i, 3-[6-(4-Trifluoromethylphenyl)-[1,2,4]-triazolo[3,4-b]-[1,3,4]-thiadiazol-3-yl]-1H-indole]
KG1a
  IC50: 2.19 ± 0.72 µM
HeLa
  IC50: 2.7 ± 0.19 µM
Jurkat
  activity against Jurkat cells (in words): no activity
  IC50: > 100 µM
MDA-MB-231
  IC50: 4.22 ± 0.38 µM
His-tagged Bcl-2 protein
  IC50: 1.74 ± 0.15 µM
other
  melting point: 194 to 196 °C

## O=[N+]([O-])c1cccc(-c2nn3c(-c4c[nH]c5ccccc45)nnc3s2)c1 [Compound 5j, 3-[6-(3-Nitrophenyl)-[1,2,4]-triazolo[3,4-b]-[1,3,4]-thiadiazol-3-yl]-1H-indole]
KG1a
  IC50: 6.82 ± 0.45 µM
HeLa
  IC50: 2.18 ± 0.73 µM
Jurkat
  IC50: 32.2 ± 1.2 µM
MDA-MB-231
  IC50: 3.6 ± 0.28 µM

## COc1ccc(-c2nn3c(-c4c[nH]c5ccccc45)nnc3s2)c(OC)c1 [Compound 5k, 3-[6-(2,4-Dimethoxyphenyl)-[1,2,4]-triazolo[3,4-b]-[1,3,4]-thiadiazol-3-yl]-1H-indole]
KG1a
  IC50: 0.31 ± 0.32 µM
[1]
  IC50: 0.31 to 0.7 µM
HeLa
  IC50: 0.57 ± 0.08 µM
Jurkat
  activity against Jurkat cells (in words): without inhibiting; also recorded: no activity
  IC50: > 100 µM
MDA-MB-231
  IC50: 0.7 ± 0.3 µM
His-tagged Bcl-2 protein
  IC50: 0.32 µM and 0.3 µM and 0.34 µM and 0.36 µM
His-tagged Bcl-2 protein; competitive Bcl-2 ELISA
  ELISA IC50 compared to (−)-gossypol positive control: two-fold lower
other
  melting point: 178 to 180 °C

## COc1cc(OC)cc(-c2nn3c(-c4c[nH]c5ccccc45)nnc3s2)c1 [Compound 5l, 3-[6-(3,5-Dimethoxyphenyl)-[1,2,4]-triazolo[3,4-b]-[1,3,4]-thiadiazol-3-yl]-1H-indole]
KG1a
  IC50: 1.15 ± 0.27 µM
HeLa
  IC50: 1.42 ± 0.17 µM
Jurkat
  activity against Jurkat cells (in words): no activity
  IC50: > 100 µM
MDA-MB-231
  IC50: 0.35 ± 0.29 µM
His-tagged Bcl-2 protein
  IC50: 0.45 ± 0.03 µM
other
  melting point: 193 to 195 °C

## Cc1cc2c(C(C)C)c(O)c(O)c(C=O)c2c(O)c1-c1c(C)cc2c(C(C)C)c(O)c(O)c(C=O)c2c1O [Gossypol, gossypol, reference compound]
KG1a
  IC50: 4.2 ± 0.35 µM
HeLa
  IC50: 4.43 ± 0.54 µM
Jurkat
  IC50: 18.1 ± 1.3 µM
MDA-MB-231
  IC50: 5.5 ± 0.35 µM
